Assay results: US20240049707A1, “PESTICIDE COMPOSITIONS OF LICOCHALCONE C” (METABOLIC INSIGHTS LTD., priority 2020, published 2024)

System: Pseudomonas syringae
Assay: Microplate based screening of bioactivity against Pseudomonas syringae
Assay type: cell-based
Details: 10 μl of 250 ppm solution + 40 μl inoculum, activity grade x repeats x days of activity/168 x 100
Method: Pseudomonas Suspension Preparation: • 1) Grow Pseudomonas on LBA plates at 28° C. for 2 days to get a single colony • 2) Transfer a single colony using a sterile toothpick into a 50 ml sterile tube containing 5 ml LB and grow for 24 at 28° C. and 150 RPM • 3) Chill the tube in the fridge for 1 h • 4) Add 7.5 ml of fridge cold, sterile, glycerol solution to the tube—to get 60% glycerol solution • 5) Mix well but gently to get perfect mixing—use vortex at 1000 RPM • 6) Aliquot 100 μl of bacteria suspension in 60% glycerol into 1.5 ml tubes—each aliquot should be enough for screening of 10 microplates • 7) Store the bacteria suspension in 60% glycerol at −20° C.
Pseudomonas Suspension Preparation for Bioactivity Screening Experiment: • 1) Take 1.5 ml tube with 100 μl frozen Pseudomonas suspension from the freezer and thaw it on ice • 2) Prepare in the hood 50 ml tubes with 40 ml fridge cold LB • 3) Mix 40 μl of bacteria suspension with 40 ml fridge cold LB in a 50 ml tube. This amount is enough for activity screening of 10 microplates • 4) Use this suspension for bioactivity screening experiments […]

## COc1c(/C=C/C(=O)c2ccc(O)cc2)ccc(O)c1CC=C(C)C [Licochalcone C, (E)-3-[4-hydroxy-2-methoxy-3-(3-methylbut-2-enyl)phenyl]-1-(4-hydroxyphenyl)prop-2-en-1-one]
  Relative Activity value (%): 50%
